In US7482462B2, “Acylsulfonamides as inhibitors of steroid sulfatase” (priority 2001, dated 2009):
pIC50: −log10 of the molar value.

Molecular target: T1, human steroid sulfatase (Homo sapiens, UniProt P08842)
T1 construct: Human placenta is obtained freshly after delivery; from tissue; host or cells: human placenta (microsomes, Triton X-100 extract, column-purified)
T1 sequence (P08842 22-583): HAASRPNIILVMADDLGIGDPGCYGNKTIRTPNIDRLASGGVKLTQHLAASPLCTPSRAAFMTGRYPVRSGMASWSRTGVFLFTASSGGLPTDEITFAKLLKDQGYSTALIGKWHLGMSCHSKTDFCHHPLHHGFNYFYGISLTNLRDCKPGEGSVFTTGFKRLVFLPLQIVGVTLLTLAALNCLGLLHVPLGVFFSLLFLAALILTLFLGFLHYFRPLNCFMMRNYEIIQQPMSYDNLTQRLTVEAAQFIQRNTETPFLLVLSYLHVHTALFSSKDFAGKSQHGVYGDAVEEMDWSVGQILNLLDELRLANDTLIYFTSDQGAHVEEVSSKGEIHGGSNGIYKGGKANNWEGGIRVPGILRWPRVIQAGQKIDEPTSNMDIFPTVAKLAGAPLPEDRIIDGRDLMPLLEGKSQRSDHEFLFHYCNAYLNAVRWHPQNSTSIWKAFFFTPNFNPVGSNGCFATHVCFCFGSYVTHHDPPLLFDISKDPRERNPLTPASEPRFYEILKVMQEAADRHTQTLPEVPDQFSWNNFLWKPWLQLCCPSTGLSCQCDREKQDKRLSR
Experiment: Assay of Human Steroid Sulfatase (purified from placenta, 4-methylumbelliferyl sulfate cleavage, fluorescence)
Format: biochemical
Settings: reference compound, determined in parallel to test compounds; substrate 4-methylumbelliferyl sulfate, 37° C., 1 hour
Description: For storage, the material is frozen at −70° C.
The activity is recovered in the flow-through.
Plates are incubated at 37° C. for 1 hour.
Relative IC50 values are defined as follows: […]

SMILES: CC12CCC3c4ccc(OS(N)(=O)=O)cc4CCC3C1CCC2=O (stereo not shown) [estrone sulfamate, Estrone sulfamate]
- pIC50: ~7.22
